In patent US9809578B2, “Pyrazolyl urea, thiourea, guanidine and cyanoguanidine compounds as trkA kinase inhibitors” (Array BioPharma Inc., priority 2012, dated 2017):

Assays:
JNK3 = molecular target: T1, JNK3 (Homo sapiens, UniProt P53779); experiment: KinaseProfiler JNK3; type: biochemical; details: 10 μM, ATP near Km
T1 construct: purchased Millipore, Inc. (KinaseProfiler service)
Excerpt: (§1) The compound was run in duplicate at a concentration of ATP near the Km for each individual kinase according to Millipore's specifications.

Ros = molecular target: T2, Ros (Homo sapiens, UniProt P08922); experiment: KinaseProfiler Ros; type: biochemical; details: 10 μM, ATP near Km
T2 construct: purchased Millipore, Inc. (KinaseProfiler service)
Excerpt: as §1

PKCdelta = molecular target: T3, PKCdelta (Homo sapiens, UniProt Q05655); experiment: KinaseProfiler PKCdelta; type: biochemical; details: 10 μM, ATP near Km
T3 construct: purchased Millipore, Inc. (KinaseProfiler service)
Excerpt: as §1

AKT1 = molecular target: T4, AKT1 (Homo sapiens, UniProt P31749); experiment: KinaseProfiler AKT1; type: biochemical; details: 10 μM, ATP near Km
T4 construct: purchased Millipore (KinaseProfiler service)
Excerpt: as §1

NEK11 = molecular target: T5, NEK11 (Homo sapiens, UniProt Q8NG66); experiment: KinaseProfiler NEK11; type: biochemical; details: 10 μM, ATP near Km
T5 construct: purchased Millipore, Inc. (KinaseProfiler service)
Excerpt: as §1

c-RAF = molecular target: T6, c-RAF (Homo sapiens, UniProt P04049, Y340D/Y341D); experiment: KinaseProfiler c-RAF; type: biochemical; details: 10 μM, ATP near Km
T6 construct: purchased Millipore, Inc. (KinaseProfiler service)
Excerpt: as §1

CAMK2b = molecular target: T7, CAMK2b (Homo sapiens, UniProt Q13554); experiment: KinaseProfiler CAMK2b; type: biochemical; details: 10 μM, ATP near Km
T7 construct: purchased Millipore (KinaseProfiler service)
Excerpt: as §1

PKCbetaI = molecular target: T8, PKCbetaI (Homo sapiens, UniProt P05771); experiment: KinaseProfiler PKCbetaI; type: biochemical; details: 10 μM, ATP near Km
T8 construct: purchased Millipore, Inc. (KinaseProfiler service)
Excerpt: as §1

mTOR = molecular target: T9, mTOR (Homo sapiens, UniProt P42345); experiment: KinaseProfiler mTOR; type: biochemical; details: 10 μM, ATP near Km
T9 construct: purchased Millipore, Inc. (KinaseProfiler service)
Excerpt: as §1

FGFR3 = molecular target: T10, FGFR3 (Homo sapiens, UniProt P22607); experiment: KinaseProfiler FGFR3; type: biochemical; details: 10 μM, ATP near Km
T10 construct: purchased Millipore, Inc. (KinaseProfiler service)
Excerpt: as §1

Abl2 = molecular target: T11, Abl2 (Homo sapiens, UniProt P42684); experiment: KinaseProfiler Abl2; type: biochemical; details: 10 μM, ATP near Km
T11 construct: purchased Millipore (KinaseProfiler service)
Excerpt: as §1

PKCzeta = molecular target: T12, PKCzeta (Homo sapiens, UniProt Q05513); experiment: KinaseProfiler PKCzeta; type: biochemical; details: 10 μM, ATP near Km
T12 construct: purchased Millipore, Inc. (KinaseProfiler service)
Excerpt: as §1

EphB3 = molecular target: T13, EphB3 (Homo sapiens, UniProt P54753); experiment: KinaseProfiler EphB3; type: biochemical; details: 10 μM, ATP near Km
T13 construct: purchased Millipore, Inc. (KinaseProfiler service)
Excerpt: as §1

CAMK2g = molecular target: T14, CAMK2g (Homo sapiens, UniProt Q13555); experiment: KinaseProfiler CAMK2g; type: biochemical; details: 10 μM, ATP near Km
T14 construct: purchased Millipore (KinaseProfiler service)
Excerpt: as §1

NEK6 = molecular target: T15, NEK6 (Homo sapiens, UniProt Q9HC98); experiment: KinaseProfiler NEK6; type: biochemical; details: 10 μM, ATP near Km
T15 construct: purchased Millipore, Inc. (KinaseProfiler service)
Excerpt: as §1

JNK1alpha1 = molecular target: T16, JNK1alpha1 (Homo sapiens, UniProt P45983); experiment: KinaseProfiler JNK1alpha1; type: biochemical; details: 10 μM, ATP near Km
T16 construct: purchased Millipore, Inc. (KinaseProfiler service)
Excerpt: as §1

TAO2 = molecular target: T17, TAO2 (Homo sapiens, UniProt Q9UL54); experiment: KinaseProfiler TAO2; type: biochemical; details: 10 μM, ATP near Km
T17 construct: purchased Millipore, Inc. (KinaseProfiler service)
Excerpt: as §1

IKKalpha = molecular target: T18, IKKalpha (Homo sapiens, UniProt O15111); experiment: KinaseProfiler IKKalpha; type: biochemical; details: 10 μM, ATP near Km
T18 construct: purchased Millipore, Inc. (KinaseProfiler service)
Excerpt: as §1

Txk = molecular target: T19, Txk (Homo sapiens, UniProt P42681); experiment: KinaseProfiler Txk; type: biochemical; details: 10 μM, ATP near Km
T19 construct: purchased Millipore, Inc. (KinaseProfiler service)
Excerpt: as §1

[1] = molecular target: T20, His-tagged recombinant human TrkA (Homo sapiens, UniProt P04629); experiment: TrkA LanthaScreen Eu Kinase Binding Assay
T20 construct: 6HIS tagged cytoplasmic domain from Invitrogen, Cat. No. PV3144; purchased Invitrogen PV3144
Protocol: TrkA binding activity was determined in a TrkA LanthaScreen™ Eu Kinase Binding Assay. […] Three fold serial dilutions of compounds of the invention in DMSO were added to a final percentage of 2% DMSO. […] The percent of control was calculated using a ratiometric emission factor. The IC50 values were determined by fitting a four parameter model to the percent of control data.

Fyn = molecular target: T21, Fyn (Homo sapiens, UniProt P06241); experiment: KinaseProfiler Fyn; type: biochemical; details: 10 μM, ATP near Km
T21 construct: purchased Millipore, Inc. (KinaseProfiler service)
Excerpt: as §1

DDR2 = molecular target: T22, DDR2 (Homo sapiens, UniProt Q16832); experiment: KinaseProfiler DDR2; type: biochemical; details: 10 μM, ATP near Km
T22 construct: purchased Millipore, Inc. (KinaseProfiler service)
Excerpt: as §1

MKK7beta = molecular target: T23, MKK7beta (Homo sapiens, UniProt O14733); experiment: KinaseProfiler MKK7beta; type: biochemical; details: 10 μM, ATP near Km
T23 construct: purchased Millipore, Inc. (KinaseProfiler service)
Excerpt: as §1

CDK2/cyclinA = molecular target: T24, CDK2/cyclinA (Homo sapiens, UniProt P24941); experiment: KinaseProfiler CDK2/cyclinA; type: biochemical; details: 10 μM, ATP near Km
T24 construct: purchased Millipore, Inc. (KinaseProfiler service)
Excerpt: as §1

CAMK2d = molecular target: T25, CAMK2d (Homo sapiens, UniProt Q13557); experiment: KinaseProfiler CAMK2d; type: biochemical; details: 10 μM, ATP near Km
T25 construct: purchased Millipore (KinaseProfiler service)
Excerpt: as §1

Bmx = molecular target: T26, Bmx (Homo sapiens, UniProt P51813); experiment: KinaseProfiler Bmx; type: biochemical; details: 10 μM, ATP near Km
T26 construct: purchased Millipore (KinaseProfiler service)
Excerpt: as §1

PAK2 = molecular target: T27, PAK2 (Homo sapiens, UniProt Q13177); experiment: KinaseProfiler PAK2; type: biochemical; details: 10 μM, ATP near Km
T27 construct: purchased Millipore, Inc. (KinaseProfiler service)
Excerpt: as §1

MSK2 = molecular target: T28, MSK2 (Homo sapiens, UniProt O75676); experiment: KinaseProfiler MSK2; type: biochemical; details: 10 μM, ATP near Km
T28 construct: purchased Millipore, Inc. (KinaseProfiler service)
Excerpt: as §1

PAK4 = molecular target: T29, PAK4 (Homo sapiens, UniProt O96013); experiment: KinaseProfiler PAK4; type: biochemical; details: 10 μM, ATP near Km
T29 construct: purchased Millipore, Inc. (KinaseProfiler service)
Excerpt: as §1

MRCKbeta = molecular target: T30, MRCKbeta (Homo sapiens, UniProt Q9Y5S2); experiment: KinaseProfiler MRCKbeta; type: biochemical; details: 10 μM, ATP near Km
T30 construct: purchased Millipore, Inc. (KinaseProfiler service)
Excerpt: as §1

TLK2 = molecular target: T31, TLK2 (Homo sapiens, UniProt Q86UE8); experiment: KinaseProfiler TLK2; type: biochemical; details: 10 μM, ATP near Km
T31 construct: purchased Millipore, Inc. (KinaseProfiler service)
Excerpt: as §1

FGFR1 = molecular target: T32, FGFR1 (Homo sapiens, UniProt P11362); experiment: KinaseProfiler FGFR1; type: biochemical; details: 10 μM, ATP near Km
T32 construct: purchased Millipore, Inc. (KinaseProfiler service)
Excerpt: as §1

Plk2 = molecular target: T33, Plk2 (Homo sapiens, UniProt Q9NYY3); experiment: KinaseProfiler Plk2; type: biochemical; details: 10 μM, ATP near Km
T33 construct: purchased Millipore, Inc. (KinaseProfiler service)
Excerpt: as §1

PKD2 = molecular target: T34, PKD2 (Homo sapiens, UniProt Q9BZL6); experiment: KinaseProfiler PKD2; type: biochemical; details: 10 μM, ATP near Km
T34 construct: purchased Millipore, Inc. (KinaseProfiler service)
Excerpt: as §1

MAP3K5 = molecular target: T35, MAP3K5 (Homo sapiens, UniProt Q99683); experiment: KinaseProfiler MAP3K5; type: biochemical; details: 10 μM, ATP near Km
T35 construct: purchased Millipore, Inc. (KinaseProfiler service)
Excerpt: as §1

SRPK1 = molecular target: T36, SRPK1 (Homo sapiens, UniProt Q96SB4); experiment: KinaseProfiler SRPK1; type: biochemical; details: 10 μM, ATP near Km
T36 construct: purchased Millipore, Inc. (KinaseProfiler service)
Excerpt: as §1

EphA1 = molecular target: T37, EphA1 (Homo sapiens, UniProt P21709); experiment: KinaseProfiler EphA1; type: biochemical; details: 10 μM, ATP near Km
T37 construct: purchased Millipore, Inc. (KinaseProfiler service)
Excerpt: as §1

Pim-3 = molecular target: T38, Pim-3 (Homo sapiens, UniProt Q86V86); experiment: KinaseProfiler Pim-3; type: biochemical; details: 10 μM, ATP near Km
T38 construct: purchased Millipore, Inc. (KinaseProfiler service)
Excerpt: as §1

PKCtheta = molecular target: T39, PKCtheta (Homo sapiens, UniProt Q04759); experiment: KinaseProfiler PKCtheta; type: biochemical; details: 10 μM, ATP near Km
T39 construct: purchased Millipore, Inc. (KinaseProfiler service)
Excerpt: as §1

MAPKAP-K5 = molecular target: T40, MAPKAP-K5 (Homo sapiens, UniProt Q8IW41); experiment: KinaseProfiler MAPKAP-K5; type: biochemical; details: 10 μM, ATP near Km
T40 construct: purchased Millipore, Inc. (KinaseProfiler service)
Excerpt: as §1

T19 sequence (P42681 whole entry): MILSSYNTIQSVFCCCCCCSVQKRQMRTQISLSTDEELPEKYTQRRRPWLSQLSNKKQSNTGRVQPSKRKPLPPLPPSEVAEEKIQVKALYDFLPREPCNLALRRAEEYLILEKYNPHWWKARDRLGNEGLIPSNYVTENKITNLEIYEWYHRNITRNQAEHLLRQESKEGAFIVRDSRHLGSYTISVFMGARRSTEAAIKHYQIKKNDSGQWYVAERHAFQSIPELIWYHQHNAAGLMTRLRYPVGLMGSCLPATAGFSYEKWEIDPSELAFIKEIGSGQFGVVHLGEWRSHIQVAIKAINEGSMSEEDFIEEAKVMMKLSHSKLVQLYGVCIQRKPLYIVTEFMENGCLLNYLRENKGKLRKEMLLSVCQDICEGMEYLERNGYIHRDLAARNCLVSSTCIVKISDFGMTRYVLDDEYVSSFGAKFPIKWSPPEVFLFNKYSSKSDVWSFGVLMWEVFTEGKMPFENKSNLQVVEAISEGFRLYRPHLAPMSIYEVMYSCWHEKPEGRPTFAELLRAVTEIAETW
T26 sequence (P51813 whole entry): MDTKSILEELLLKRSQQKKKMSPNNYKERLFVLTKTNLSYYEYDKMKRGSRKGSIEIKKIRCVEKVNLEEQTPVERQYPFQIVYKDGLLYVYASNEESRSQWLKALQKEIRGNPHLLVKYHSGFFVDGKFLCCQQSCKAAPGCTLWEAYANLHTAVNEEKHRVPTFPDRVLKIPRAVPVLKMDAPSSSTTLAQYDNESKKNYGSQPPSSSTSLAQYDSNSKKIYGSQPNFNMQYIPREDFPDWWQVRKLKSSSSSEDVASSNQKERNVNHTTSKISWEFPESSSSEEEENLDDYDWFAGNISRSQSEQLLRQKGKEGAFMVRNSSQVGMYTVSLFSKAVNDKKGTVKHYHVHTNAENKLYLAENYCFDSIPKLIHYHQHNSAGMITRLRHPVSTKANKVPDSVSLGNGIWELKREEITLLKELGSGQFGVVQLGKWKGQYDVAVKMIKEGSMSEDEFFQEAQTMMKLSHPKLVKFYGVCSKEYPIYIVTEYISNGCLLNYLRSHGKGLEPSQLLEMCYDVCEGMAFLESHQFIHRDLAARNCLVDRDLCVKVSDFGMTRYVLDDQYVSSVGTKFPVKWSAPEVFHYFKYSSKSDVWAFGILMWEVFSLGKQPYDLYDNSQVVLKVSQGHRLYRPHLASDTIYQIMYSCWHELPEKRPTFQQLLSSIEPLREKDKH
T12 sequence (Q05513 whole entry): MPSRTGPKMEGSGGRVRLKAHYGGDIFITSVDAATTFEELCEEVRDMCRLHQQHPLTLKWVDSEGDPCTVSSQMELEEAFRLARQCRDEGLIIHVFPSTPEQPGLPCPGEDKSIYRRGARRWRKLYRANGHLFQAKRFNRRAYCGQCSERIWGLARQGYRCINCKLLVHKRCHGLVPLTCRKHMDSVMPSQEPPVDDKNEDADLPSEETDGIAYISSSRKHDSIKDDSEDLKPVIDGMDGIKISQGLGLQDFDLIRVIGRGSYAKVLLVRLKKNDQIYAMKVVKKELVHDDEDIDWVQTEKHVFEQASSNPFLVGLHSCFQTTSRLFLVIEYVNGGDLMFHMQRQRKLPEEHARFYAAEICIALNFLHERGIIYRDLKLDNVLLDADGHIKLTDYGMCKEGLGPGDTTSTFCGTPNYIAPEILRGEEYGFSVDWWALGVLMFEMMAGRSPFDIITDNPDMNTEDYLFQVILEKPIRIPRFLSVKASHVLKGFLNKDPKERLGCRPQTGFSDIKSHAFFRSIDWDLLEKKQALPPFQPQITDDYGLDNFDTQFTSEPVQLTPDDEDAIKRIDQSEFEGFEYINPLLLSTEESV
T8 sequence (P05771 whole entry): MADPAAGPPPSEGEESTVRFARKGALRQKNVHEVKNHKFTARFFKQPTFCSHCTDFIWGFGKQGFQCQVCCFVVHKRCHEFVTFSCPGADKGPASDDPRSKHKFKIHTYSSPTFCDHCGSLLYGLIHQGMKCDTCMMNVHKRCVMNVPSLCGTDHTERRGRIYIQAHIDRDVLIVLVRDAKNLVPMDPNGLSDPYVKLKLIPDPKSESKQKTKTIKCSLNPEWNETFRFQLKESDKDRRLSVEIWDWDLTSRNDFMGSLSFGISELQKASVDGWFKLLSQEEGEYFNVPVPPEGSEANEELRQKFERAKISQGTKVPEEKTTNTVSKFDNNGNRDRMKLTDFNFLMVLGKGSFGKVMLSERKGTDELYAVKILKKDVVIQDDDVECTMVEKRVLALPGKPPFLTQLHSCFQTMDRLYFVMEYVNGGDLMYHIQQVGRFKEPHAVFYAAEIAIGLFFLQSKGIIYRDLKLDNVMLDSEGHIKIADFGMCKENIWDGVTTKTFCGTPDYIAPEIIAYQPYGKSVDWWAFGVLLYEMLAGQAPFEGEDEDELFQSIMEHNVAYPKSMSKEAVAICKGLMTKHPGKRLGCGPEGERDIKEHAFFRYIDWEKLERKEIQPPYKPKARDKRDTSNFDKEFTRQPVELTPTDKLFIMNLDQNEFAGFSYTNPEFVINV
T22 sequence (Q16832 22-855): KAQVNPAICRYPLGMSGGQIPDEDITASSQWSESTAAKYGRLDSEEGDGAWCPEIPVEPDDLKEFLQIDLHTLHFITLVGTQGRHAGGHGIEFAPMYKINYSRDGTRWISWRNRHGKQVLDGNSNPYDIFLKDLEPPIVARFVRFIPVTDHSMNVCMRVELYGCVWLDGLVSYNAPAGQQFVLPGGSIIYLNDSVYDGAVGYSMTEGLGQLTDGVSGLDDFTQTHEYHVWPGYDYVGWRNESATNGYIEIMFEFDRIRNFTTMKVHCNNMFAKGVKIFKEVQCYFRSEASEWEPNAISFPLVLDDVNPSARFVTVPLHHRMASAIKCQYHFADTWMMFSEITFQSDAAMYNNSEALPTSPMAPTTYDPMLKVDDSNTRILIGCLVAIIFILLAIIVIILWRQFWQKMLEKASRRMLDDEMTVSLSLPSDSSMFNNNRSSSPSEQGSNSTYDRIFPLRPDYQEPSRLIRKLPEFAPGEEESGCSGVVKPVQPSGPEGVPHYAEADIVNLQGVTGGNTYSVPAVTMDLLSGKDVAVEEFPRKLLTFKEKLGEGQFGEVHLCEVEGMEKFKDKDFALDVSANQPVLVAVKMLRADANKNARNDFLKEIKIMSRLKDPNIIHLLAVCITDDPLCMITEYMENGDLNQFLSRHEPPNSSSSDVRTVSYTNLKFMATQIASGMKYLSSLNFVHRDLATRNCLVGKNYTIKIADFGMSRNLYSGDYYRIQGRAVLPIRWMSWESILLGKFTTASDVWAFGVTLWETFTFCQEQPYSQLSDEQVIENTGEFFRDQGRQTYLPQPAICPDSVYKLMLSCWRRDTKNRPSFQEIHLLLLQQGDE
T23 sequence (O14733 whole entry): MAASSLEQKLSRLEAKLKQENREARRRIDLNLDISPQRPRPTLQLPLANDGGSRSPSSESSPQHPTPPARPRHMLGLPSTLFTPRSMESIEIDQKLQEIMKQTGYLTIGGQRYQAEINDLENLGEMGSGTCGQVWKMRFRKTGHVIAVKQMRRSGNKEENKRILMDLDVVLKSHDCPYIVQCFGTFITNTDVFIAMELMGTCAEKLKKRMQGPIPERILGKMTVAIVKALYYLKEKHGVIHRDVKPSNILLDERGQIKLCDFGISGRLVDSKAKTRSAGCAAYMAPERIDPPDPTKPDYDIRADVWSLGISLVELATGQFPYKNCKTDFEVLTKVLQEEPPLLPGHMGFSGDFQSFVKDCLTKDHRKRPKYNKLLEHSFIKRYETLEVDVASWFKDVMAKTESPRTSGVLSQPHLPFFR
T21 sequence (P06241 whole entry): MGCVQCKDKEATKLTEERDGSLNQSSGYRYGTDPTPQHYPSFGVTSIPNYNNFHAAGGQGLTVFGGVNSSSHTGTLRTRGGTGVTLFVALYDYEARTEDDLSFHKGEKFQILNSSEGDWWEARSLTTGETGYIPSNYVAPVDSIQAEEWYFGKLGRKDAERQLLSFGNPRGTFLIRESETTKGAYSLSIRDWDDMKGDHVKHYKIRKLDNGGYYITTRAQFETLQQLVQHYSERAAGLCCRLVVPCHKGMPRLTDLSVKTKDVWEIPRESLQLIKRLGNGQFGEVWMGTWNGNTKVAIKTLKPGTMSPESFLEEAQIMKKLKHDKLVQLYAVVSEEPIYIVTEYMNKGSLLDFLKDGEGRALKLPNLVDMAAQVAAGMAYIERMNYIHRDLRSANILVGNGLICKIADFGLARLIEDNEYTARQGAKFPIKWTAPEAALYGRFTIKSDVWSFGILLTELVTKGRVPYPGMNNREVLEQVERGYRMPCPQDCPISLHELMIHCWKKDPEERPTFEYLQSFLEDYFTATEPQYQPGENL
T15 sequence (Q9HC98 whole entry): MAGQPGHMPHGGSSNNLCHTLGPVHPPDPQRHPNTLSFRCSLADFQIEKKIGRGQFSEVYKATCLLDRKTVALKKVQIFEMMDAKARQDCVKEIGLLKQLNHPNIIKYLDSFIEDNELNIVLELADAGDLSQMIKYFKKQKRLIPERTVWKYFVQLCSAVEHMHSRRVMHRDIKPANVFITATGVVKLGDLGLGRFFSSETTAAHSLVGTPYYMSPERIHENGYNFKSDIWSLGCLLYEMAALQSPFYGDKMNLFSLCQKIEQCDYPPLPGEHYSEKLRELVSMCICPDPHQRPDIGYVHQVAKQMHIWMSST
T20 sequence (P04629 440-796 limits assumed): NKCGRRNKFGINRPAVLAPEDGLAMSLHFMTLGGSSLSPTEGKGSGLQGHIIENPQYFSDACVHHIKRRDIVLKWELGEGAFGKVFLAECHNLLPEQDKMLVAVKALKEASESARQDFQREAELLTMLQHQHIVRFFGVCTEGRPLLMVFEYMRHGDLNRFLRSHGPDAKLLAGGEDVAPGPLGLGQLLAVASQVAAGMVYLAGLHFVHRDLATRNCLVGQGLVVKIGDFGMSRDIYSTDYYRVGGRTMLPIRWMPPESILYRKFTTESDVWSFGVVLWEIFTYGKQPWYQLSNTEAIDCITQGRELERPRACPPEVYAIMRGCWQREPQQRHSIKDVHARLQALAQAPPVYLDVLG

## Cc1c(-c2cnn(C)c2)nn(-c2ccccc2)c1NC(=O)Nc1cc(C(F)(F)F)nn1-c1ccccc1 [Example 3, 1-(1′,4-dimethyl-1-phenyl-1H,1′H-[3,4′-bipyrazol]-5-yl)-3-(1-phenyl-3-(trifluoromethyl)-1H-pyrazol-5-yl)urea]
JNK3
  Avg POC: 124.5 POC
Ros
  Avg POC: 97 POC
PKCdelta
  Avg POC: 98.5 POC
AKT1
  Avg POC: 103.5 POC
NEK11
  Avg POC: 110 POC
c-RAF
  Avg POC: 94.5 POC
CAMK2b
  Avg POC: 96.5 POC
PKCbetaI
  Avg POC: 87 POC
mTOR
  Avg POC: 78.5 POC
FGFR3
  Avg POC: 116.5 POC
Abl2
  Avg POC: 148.5 POC
PKCzeta
  Avg POC: 103 POC
EphB3
  Avg POC: 63 POC
CAMK2g
  Avg POC: 112 POC
NEK6
  Avg POC: 125 POC
JNK1alpha1
  Avg POC: 111.5 POC
TAO2
  Avg POC: 108 POC
IKKalpha
  Avg POC: 127 POC
Txk
  Avg POC: 139.5 POC
[1]
  IC50: < 100 nM
Fyn
  Avg POC: 110 POC
DDR2
  Avg POC: 98 POC
MKK7beta
  Avg POC: 143.5 POC
CDK2/cyclinA
  Avg POC: 100.5 POC
CAMK2d
  Avg POC: 131 POC
Bmx
  Avg POC: 114.5 POC
PAK2
  Avg POC: 98 POC
MSK2
  Avg POC: 119.5 POC
PAK4
  Avg POC: 103 POC
MRCKbeta
  Avg POC: 121.5 POC
TLK2
  Avg POC: 108.5 POC
FGFR1
  Avg POC: 96 POC
Plk2
  Avg POC: 106 POC
PKD2
  Avg POC: 115 POC
MAP3K5
  Avg POC: 102 POC
SRPK1
  Avg POC: 111 POC
EphA1
  Avg POC: 93.5 POC
Pim-3
  Avg POC: 107.5 POC
PKCtheta
  Avg POC: 113.5 POC
MAPKAP-K5
  Avg POC: 108.5 POC
